# Measured values as given in PubChem BioAssay AID2060885 (Molecular Pharmacology Branch, DTP, NCI, 2025).
# Test system: NCI-H23 complex spheroids with HUVEC/MSC, viability
# Test: Anticancer human tumor NCI-H23 cell line growth inhibition [RAS];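 further: spheroids exposed to compound for 7 days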;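 on viability, T/C: 100% = DMSO vehicle control viability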
# Conditions: for IC50: curve of first compound; for viability, T/C: stronger effect = lower value
# In short: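 Tumour cells grown as complex spheroids with HUVEC endothelial cells and mesenchymal stem cells, treated with RAS pathway inhibitor combinations. Each agent spans half-log steps from near clinical Cmax, or 10 microM where Cmax is unknown.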
structure (smiles),measurement,setting,value
C=CC(=O)N1CCN(c2nc(OCC3CCCN3C)nc3c(F)c(-c4nc(N)cc(C)c4C(F)(F)F)c(Cl)cc23)C(C)C1 (centres undefined) + C#Cc1c(F)ccc2cc(O)cc(-c3ncc4c(N5CC6CCC(C5)N6)nc(OCC56CCCN5CC(F)C6)nc4c3F)c12,IC50,second compound 0.0316 µM,11.5 nM
same,IC50,second compound 0.1 µM,19.2 nM
same,IC50,second compound 0.316 µM,24.2 nM
same,IC50,second compound 1 µM,13.8 nM
same,IC50,second compound 3.16 µM,11.3 nM
same,IC50,second compound 10 µM,< 3.16 nM
same,"viability, T/C","second compound 0.0316 µM, first compound 0.00316 µM",72.4%
same,"viability, T/C","second compound 0.0316 µM, first compound 0.01 µM",52.6%
same,"viability, T/C","second compound 0.0316 µM, first compound 0.0316 µM",40.5%
same,"viability, T/C","second compound 0.0316 µM, first compound 0.1 µM",35.5%
same,"viability, T/C","second compound 0.0316 µM, first compound 0.316 µM",38%
same,"viability, T/C","second compound 0.0316 µM, first compound 1 µM",36.3%
same,"viability, T/C","second compound 0.1 µM, first compound 0.00316 µM",80.7%
same,"viability, T/C","second compound 0.1 µM, first compound 0.01 µM",58.2%
same,"viability, T/C","second compound 0.1 µM, first compound 0.0316 µM",45.3%
same,"viability, T/C","second compound 0.1 µM, first compound 0.1 µM",35.7%
same,"viability, T/C","second compound 0.1 µM, first compound 0.316 µM",30.3%
same,"viability, T/C","second compound 0.1 µM, first compound 1 µM",42.2%
same,"viability, T/C","second compound 0.316 µM, first compound 0.00316 µM",65.2%
same,"viability, T/C","second compound 0.316 µM, first compound 0.01 µM",61.3%
same,"viability, T/C","second compound 0.316 µM, first compound 0.0316 µM",46.5%
same,"viability, T/C","second compound 0.316 µM, first compound 0.1 µM",37.9%
same,"viability, T/C","second compound 0.316 µM, first compound 0.316 µM",35%
same,"viability, T/C","second compound 0.316 µM, first compound 1 µM",37.2%
same,"viability, T/C","second compound 1 µM, first compound 0.00316 µM",83.2%
same,"viability, T/C","second compound 1 µM, first compound 0.01 µM",54.5%
same,"viability, T/C","second compound 1 µM, first compound 0.0316 µM",37.7%
same,"viability, T/C","second compound 1 µM, first compound 0.1 µM",39.2%
same,"viability, T/C","second compound 1 µM, first compound 0.316 µM",39.5%
same,"viability, T/C","second compound 1 µM, first compound 1 µM",37.7%
same,"viability, T/C","second compound 3.16 µM, first compound 0.00316 µM",59.9%
same,"viability, T/C","second compound 3.16 µM, first compound 0.01 µM",55.9%
same,"viability, T/C","second compound 3.16 µM, first compound 0.0316 µM",38.4%
same,"viability, T/C","second compound 3.16 µM, first compound 0.1 µM",42.3%
same,"viability, T/C","second compound 3.16 µM, first compound 0.316 µM",39.8%
same,"viability, T/C","second compound 3.16 µM, first compound 1 µM",38.5%
same,"viability, T/C","second compound 10 µM, first compound 0.00316 µM",35.7%
same,"viability, T/C","second compound 10 µM, first compound 0.01 µM",39.6%
same,"viability, T/C","second compound 10 µM, first compound 0.0316 µM",42.4%
same,"viability, T/C","second compound 10 µM, first compound 0.1 µM",32.3%
same,"viability, T/C","second compound 10 µM, first compound 0.316 µM",30.4%
same,"viability, T/C","second compound 10 µM, first compound 1 µM",33.5%
CC1(C)CCC(Nc2ncc(C(F)(F)F)c(-c3c[nH]c4c(P(C)(C)=O)c(C#N)ccc34)n2)CN1 (centres undefined) + C#Cc1c(F)ccc2cc(O)cc(-c3ncc4c(N5CC6CCC(C5)N6)nc(OCC56CCCN5CC(F)C6)nc4c3F)c12,IC50,second compound 0.0316 µM,25.3 nM
same,IC50,second compound 0.1 µM,> 300 nM
same,IC50,second compound 0.316 µM,13.3 nM
same,IC50,second compound 1 µM,5.95 nM
same,IC50,second compound 3.16 µM,< 0.949 nM
same,IC50,second compound 10 µM,< 0.949 nM
same,"viability, T/C","second compound 0.0316 µM, first compound 0.000949 µM",77.4%
same,"viability, T/C","second compound 0.0316 µM, first compound 0.003 µM",95.5%
same,"viability, T/C","second compound 0.0316 µM, first compound 0.00949 µM",64.1%
same,"viability, T/C","second compound 0.0316 µM, first compound 0.03 µM",46.9%
same,"viability, T/C","second compound 0.0316 µM, first compound 0.0949 µM",42.9%
same,"viability, T/C","second compound 0.0316 µM, first compound 0.3 µM",53%
same,"viability, T/C","second compound 0.1 µM, first compound 0.000949 µM",105%
same,"viability, T/C","second compound 0.1 µM, first compound 0.003 µM",87.7%
same,"viability, T/C","second compound 0.1 µM, first compound 0.00949 µM",60.6%
same,"viability, T/C","second compound 0.1 µM, first compound 0.03 µM",46.7%
same,"viability, T/C","second compound 0.1 µM, first compound 0.0949 µM",44.5%
same,"viability, T/C","second compound 0.1 µM, first compound 0.3 µM",59.2%
same,"viability, T/C","second compound 0.316 µM, first compound 0.000949 µM",82.9%
same,"viability, T/C","second compound 0.316 µM, first compound 0.003 µM",75.6%
same,"viability, T/C","second compound 0.316 µM, first compound 0.00949 µM",52.2%
same,"viability, T/C","second compound 0.316 µM, first compound 0.03 µM",44.8%
same,"viability, T/C","second compound 0.316 µM, first compound 0.0949 µM",35.6%
same,"viability, T/C","second compound 0.316 µM, first compound 0.3 µM",40.8%
same,"viability, T/C","second compound 1 µM, first compound 0.000949 µM",83.2%
same,"viability, T/C","second compound 1 µM, first compound 0.003 µM",60.8%
same,"viability, T/C","second compound 1 µM, first compound 0.00949 µM",42.7%
same,"viability, T/C","second compound 1 µM, first compound 0.03 µM",38.2%
same,"viability, T/C","second compound 1 µM, first compound 0.0949 µM",39%
same,"viability, T/C","second compound 1 µM, first compound 0.3 µM",36.8%
same,"viability, T/C","second compound 3.16 µM, first compound 0.000949 µM",45%
same,"viability, T/C","second compound 3.16 µM, first compound 0.003 µM",37.9%
same,"viability, T/C","second compound 3.16 µM, first compound 0.00949 µM",33%
same,"viability, T/C","second compound 3.16 µM, first compound 0.03 µM",28.4%
same,"viability, T/C","second compound 3.16 µM, first compound 0.0949 µM",33%
same,"viability, T/C","second compound 3.16 µM, first compound 0.3 µM",31.4%
same,"viability, T/C","second compound 10 µM, first compound 0.000949 µM",29.7%
same,"viability, T/C","second compound 10 µM, first compound 0.003 µM",29.1%
same,"viability, T/C","second compound 10 µM, first compound 0.00949 µM",25.1%
same,"viability, T/C","second compound 10 µM, first compound 0.03 µM",21.7%
same,"viability, T/C","second compound 10 µM, first compound 0.0949 µM",19.3%
same,"viability, T/C","second compound 10 µM, first compound 0.3 µM",18.4%
